Data from patent US8604023B2, “1,4-benzodiazepinone compounds and their use in treating cancer” (The Regents of the University of Michigan, priority 2009, dated 2013).

Legend:
Experiment in all cases: cancer cell growth inhibition (SRB)
Format in all cases: cell-based, human
EKVX = details: Non-Small Cell Lung Cancer
HOP-62 = details: Non-Small Cell Lung Cancer
HOP-92 = details: Non-Small Cell Lung Cancer
NCI-H23 = details: Non-Small Cell Lung Cancer
NCI-H322M = details: Non-Small Cell Lung Cancer
NCI-H460 = details: Non-Small Cell Lung Cancer
NCI-H522 = details: Non-Small Cell Lung Cancer
COLO 205 = details: Colon Cancer
HCC-2998 = details: Colon Cancer
HCT-116 = details: Colon Cancer
SW-620 = details: Colon Cancer
BT-549 = details: Breast Cancer
HS 578T = details: Breast Cancer
MCF7 = details: Breast Cancer
NCI/ADR-RES = details: Breast Cancer
OVCAR-4 = details: Ovarian Cancer
OVCAR-5 = details: Ovarian Cancer
OVCAR-8 = details: Ovarian Cancer
SK-OV-3 = details: Ovarian Cancer
MOLT-4 = details: Leukemia
RPMI-8226 = details: Leukemia
SR = details: Leukemia
786-0 = details: Renal Cancer
A498 = details: Renal Cancer
ACHN = details: Renal Cancer
CAKI-1 = details: Renal Cancer
RXF 393 = details: Renal Cancer
SN12C = details: Renal Cancer
TK-10 = details: Renal Cancer
UO-31 = details: Renal Cancer
LOXIMVI = details: Melanoma
M14 = details: Melanoma
MALME-3M = details: Melanoma
SK-MEL-2 = details: Melanoma
SK-MEL-5 = details: Melanoma
UACC-257 = details: Melanoma
UACC-62 = details: Melanoma
DU-145 = details: Prostate Cancer
PC-3 = details: Prostate Cancer
SF-295 = details: CNS Cancer
SNB-19 = details: CNS Cancer
SNB-75 = details: CNS Cancer
U251 = details: CNS Cancer

SMILES: CN1C(=O)C(Cc2ccc3ccccc3c2)N=C(c2cn[nH]c2)c2cc(Cl)ccc21 (stereo not shown) [Compound V-38]
- growth inhibition of the cancer cells (EKVX): ++ (40%-75% growth inhibition of the cancer cells)
- growth inhibition of the cancer cells (HOP-62): +++ (at least 75% growth inhibition of the cancer cells)
- growth inhibition of the cancer cells (HOP-92): ++ (40%-75% growth inhibition of the cancer cells)
- growth inhibition of the cancer cells (NCI-H23): +++ (at least 75% growth inhibition of the cancer cells)
- growth inhibition of the cancer cells (NCI-H322M): + (less than 40% growth inhibition of the cancer cells)
- growth inhibition of the cancer cells (NCI-H460): ++ (40%-75% growth inhibition of the cancer cells)
- growth inhibition of the cancer cells (NCI-H522): ++ (40%-75% growth inhibition of the cancer cells)
- growth inhibition of the cancer cells (COLO 205): ++ (40%-75% growth inhibition of the cancer cells)
- growth inhibition of the cancer cells (HCC-2998): +++ (at least 75% growth inhibition of the cancer cells)
- growth inhibition of the cancer cells (HCT-116): +++ (at least 75% growth inhibition of the cancer cells)
- growth inhibition of the cancer cells (SW-620): +++ (at least 75% growth inhibition of the cancer cells)
- growth inhibition of the cancer cells (BT-549): +++ (at least 75% growth inhibition of the cancer cells)
- growth inhibition of the cancer cells (HS 578T): + (less than 40% growth inhibition of the cancer cells)
- growth inhibition of the cancer cells (MCF7): ++ (40%-75% growth inhibition of the cancer cells)
- growth inhibition of the cancer cells (NCI/ADR-RES): + (less than 40% growth inhibition of the cancer cells)
- growth inhibition of the cancer cells (OVCAR-4): ++ (40%-75% growth inhibition of the cancer cells)
- growth inhibition of the cancer cells (OVCAR-5): + (less than 40% growth inhibition of the cancer cells)
- growth inhibition of the cancer cells (OVCAR-8): + (less than 40% growth inhibition of the cancer cells)
- growth inhibition of the cancer cells (SK-OV-3): + (less than 40% growth inhibition of the cancer cells)
- growth inhibition of the cancer cells (MOLT-4): + (less than 40% growth inhibition of the cancer cells)
- growth inhibition of the cancer cells (RPMI-8226): + (less than 40% growth inhibition of the cancer cells)
- growth inhibition of the cancer cells (SR): − (an apparent increase in cancer cell growth upon administration of the test compound)
- growth inhibition of the cancer cells (786-0): +++ (at least 75% growth inhibition of the cancer cells)
- growth inhibition of the cancer cells (A498): +++ (at least 75% growth inhibition of the cancer cells)
- growth inhibition of the cancer cells (ACHN): +++ (at least 75% growth inhibition of the cancer cells)
- growth inhibition of the cancer cells (CAKI-1): + (less than 40% growth inhibition of the cancer cells)
- growth inhibition of the cancer cells (RXF 393): +++ (at least 75% growth inhibition of the cancer cells)
- growth inhibition of the cancer cells (SN12C): ++ (40%-75% growth inhibition of the cancer cells)
- growth inhibition of the cancer cells (TK-10): +++ (at least 75% growth inhibition of the cancer cells)
- growth inhibition of the cancer cells (UO-31): +++ (at least 75% growth inhibition of the cancer cells)
- growth inhibition of the cancer cells (LOXIMVI): +++ (at least 75% growth inhibition of the cancer cells)
- growth inhibition of the cancer cells (M14): +++ (at least 75% growth inhibition of the cancer cells)
- growth inhibition of the cancer cells (MALME-3M): +++ (at least 75% growth inhibition of the cancer cells)
- growth inhibition of the cancer cells (SK-MEL-2): ++ (40%-75% growth inhibition of the cancer cells)
- growth inhibition of the cancer cells (SK-MEL-5): +++ (at least 75% growth inhibition of the cancer cells)
- growth inhibition of the cancer cells (UACC-257): +++ (at least 75% growth inhibition of the cancer cells)
- growth inhibition of the cancer cells (UACC-62): +++ (at least 75% growth inhibition of the cancer cells)
- growth inhibition of the cancer cells (DU-145): +++ (at least 75% growth inhibition of the cancer cells)
- growth inhibition of the cancer cells (PC-3): + (less than 40% growth inhibition of the cancer cells)
- growth inhibition of the cancer cells (SF-295): + (less than 40% growth inhibition of the cancer cells)
- growth inhibition of the cancer cells (SNB-19): ++ (40%-75% growth inhibition of the cancer cells)
- growth inhibition of the cancer cells (SNB-75): +++ (at least 75% growth inhibition of the cancer cells)
- growth inhibition of the cancer cells (U251): +++ (at least 75% growth inhibition of the cancer cells)
